Assay results as given in article PMC10531311, “Anti-Inflammatory Activities of 8-Benzylaminoxanthines Showing High Adenosine A2A and Dual A1/A2A Receptor Affinity” (International Journal of Molecular Sciences, 2023).
“Also recorded” adds a separate entry of the source.

Legend:
[1] = system: SH-SY5Y cells; assay: Neurotoxicity, MTS cell viability; format: cell-based, human; settings: 0.098 μM to 100 μM, 24 h
Procedure: Drug safety is a critical step in the process of drug development. […] In our studies, neurotoxicity and hepatotoxicity were evaluated in SH-SY5Y and HepG2 cells, respectively. The compounds were tested at 11 concentrations from 0.098 μM to 100 μM (see Figure 5). Cell viability was assessed after incubation for 24 h with the SH-SY5Y line and for 48 h with the HepG2 line.
To evaluate neurotoxicity and hepatotoxicity, the human neuroblastoma cell line SH-SY5Y (ATCC® no. CRL-2266™) and hepatoma cell line HepG2 (ATCC® no. HB-8065™) were used, respectively. The cells (SH-SY5Y: 5 × 10^3 cells/100μL/well and HepG2: 7 × 10^3 cells/100 μL/well) were seeded in transparent 96-well plates (Nunc) in DMEM supplemented with 10% FBS and cultured overnight. The next day, the medium was changed to medium containing dimethylsulfoxide (DMSO < 0.1%, vehicle control) or an increasing concentration of compounds MZ-1483 (19), MZ-1490 (22) and MZ-1495 (24) ([…]–100 × 10^−6 M). To perform dose-response analysis, two-fold serial dilutions (11 points) were prepared. Treatment with compounds was performed for 48 h. After the incubation time, the cell viability was examined using an MTS-based [3-(4,5-dimethylthiazol-2-yl)-5-(3-carboxymethoxyphenyl)-2-(4-sulfophenyl)-2 H tetrazolium] CellTiter96® AQueous One Solution Cell Proliferation Assay (Promega, Madison, WI, USA) following the manufacturer’s protocol. Briefly, 20 μL of MTS solution was pipetted into each well containing 100 μL of culture or culture medium (negative control) and incubated at 37 °C for 1 h. After incubation time, formazan product turnover absorbance was measured at 490 nm using the microplate reader (Tecan Spark®, Tecan Group Ltd., Maennedorf, Switzerland). A reference wavelength of 630 nm was used.

[2] = target: T1, CYP3A4 (Homo sapiens, UniProt P08684); assay: Drug-drug interactions, CYP3A4 P450-Glo; format: in vitro ADME; settings: 10 µM
T1 construct: purchased Promega (Madison, WI, USA)
T1 sequence (P08684 whole entry): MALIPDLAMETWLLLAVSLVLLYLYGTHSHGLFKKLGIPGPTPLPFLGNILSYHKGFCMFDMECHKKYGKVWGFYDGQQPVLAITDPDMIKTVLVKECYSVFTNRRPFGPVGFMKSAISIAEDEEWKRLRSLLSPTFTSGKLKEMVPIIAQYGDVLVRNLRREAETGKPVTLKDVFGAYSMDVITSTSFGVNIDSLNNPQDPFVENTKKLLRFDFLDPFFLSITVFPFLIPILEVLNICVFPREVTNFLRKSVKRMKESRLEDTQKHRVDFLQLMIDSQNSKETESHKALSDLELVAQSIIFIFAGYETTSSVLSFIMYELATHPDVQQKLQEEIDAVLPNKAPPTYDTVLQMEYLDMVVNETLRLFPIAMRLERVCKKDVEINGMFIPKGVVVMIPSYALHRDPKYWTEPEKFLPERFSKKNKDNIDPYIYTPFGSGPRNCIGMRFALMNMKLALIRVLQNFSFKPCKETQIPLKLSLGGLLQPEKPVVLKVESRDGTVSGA
Procedure: (§1) To predict potential drug-drug interactions (DDI) effects on three of the most relevant cytochrome P450 (CYP), isoforms CYP3A4, CYP2D6 and CYP2C9 were investigated at a concentration of 10 µM. The results were compared with the effects of 1 µM of the selective inhibitors ketoconazole (CYP3A4), quinidine (CYP2D6) and sulfaphenazole (CYP2C9).
(§2) The influence of the tested compounds on recombinant human cytochromes was determined with the use of CYP3A4, CYP2D6 and CYP2C9 P450-Glo™ kits and protocols provided by Promega (Madison, WI, USA). Compounds were tested at a concentration of 10 μM. Reference inhibitors: Ketoconazole (CYP3A4), quinidine (CYP2D6) and sulfaphenazole (CYP2C9) were tested at 1 μM. The luminescent signals were measured using a microplate reader EnSpire PerkinElmer (Waltham, MA, USA).

[3] = system: BV-2 cells treated with LPS; assay: Griess assay, NO production; settings: BV-2, LPS 1 μg/mL 24 h; at the lowest concentrations (19: 100 nM; 22: 100 and 200 nM)
Procedure: To assess the ability of compounds to inhibit NO production, the Griess assay was applied. This is a colorimetric assay to measure the levels of nitrite (NO2^−), which is one of the primary and stable metabolites of NO. The anti-inflammatory activity of compounds was examined in BV-2 cells treated with LPS as previously described [19]. Briefly, BV-2 cells were first pre-treated with increasing concentrations of tested compounds for 1 h, followed by LPS (1 μg/mL) stimulation for 24 h. Together with the Griess assay, the 3-(4,5-dimethylthiazol-2-yl)-5-(3-carboxymethoxyphenyl)-2-(4-sulfophenyl)-2H-tetrazolium (MTS) assay was performed to ensure that the decrease in NO level was not an effect of toxicity.
Griess reagent (Sigma-Aldrich, Saint Louis, MO, USA, G4410) was freshly prepared by dissolving 1 g in ultrapure water and mixing by inversion for about 4 min under protection from light. […] The plate was incubated for 15 min at room temperature and the absorbance was read at 540 nm using the EnSpire microplate reader (PerkinElmer, Waltham, MA, USA). Data were analyzed by direct comparison based on the average absorbance of LPS treatment, compound treatment or co-treatment with LPS, performed by normalizing treated cells (compound alone or co-treatment with LPS) to LPS-treated cells set at 100%.

[4] = system: BV-2 cells; assay: Phagocytic activity, IncuCyte pHrodo; format: cell-based; settings: 1 µM; BV-2, LPS 1 μg/mL; apoptotic Jurkat target cells
Procedure: For the evaluation of phagocytic activity, compound 22 (MZ1490) was chosen as the most promising one on the basis of the results from the Griess assay. This compound was tested at a concentration of 1 µM, and phagocytosis was monitored in real time using an IncuCyte® pHrodo® Red Cell Labeling Kit (catalog no. 4766, Sartorius, Göttingen, Germany). […] It is interesting to note that the phagocytic activity exerted by untreated BV-2 cells is also related to the serum concentration. A healthy CNS maintains the BBB, and microglia are often highly ramified surveillance microglia without enhanced phagocytosis. […]
Phagocytosis was monitored in real time using the IncuCyte® pHrodo® Red Cell Labeling Kit. The principle of this test is based on the ability of the pHrodo to emit fluorescence in an acidic environment, which is precisely the environment inside the phagosome. If effector cells engulf labeled target cells and these enter the acidic phagosome, a substantial increase in fluorescence is observed. In this way, we can quantify phagocytosis. […] After this time, the labeled Jurkat apoptotic cells were added to the BV-2 cells at a density of 100,000 cells/well and the cells were monitored in an IncuCyte Live-Cell Analysis System. Repeat scanning to record phase and fluorescence images was carried out every 1 h, for up to 22 h. […]

[5] = target: T2, CYP2D6 (Homo sapiens, UniProt P10635); assay: Drug-drug interactions, CYP2D6 P450-Glo; format: in vitro ADME; settings: 10 µM
T2 construct: purchased Promega (Madison, WI, USA)
T2 sequence (P10635 whole entry): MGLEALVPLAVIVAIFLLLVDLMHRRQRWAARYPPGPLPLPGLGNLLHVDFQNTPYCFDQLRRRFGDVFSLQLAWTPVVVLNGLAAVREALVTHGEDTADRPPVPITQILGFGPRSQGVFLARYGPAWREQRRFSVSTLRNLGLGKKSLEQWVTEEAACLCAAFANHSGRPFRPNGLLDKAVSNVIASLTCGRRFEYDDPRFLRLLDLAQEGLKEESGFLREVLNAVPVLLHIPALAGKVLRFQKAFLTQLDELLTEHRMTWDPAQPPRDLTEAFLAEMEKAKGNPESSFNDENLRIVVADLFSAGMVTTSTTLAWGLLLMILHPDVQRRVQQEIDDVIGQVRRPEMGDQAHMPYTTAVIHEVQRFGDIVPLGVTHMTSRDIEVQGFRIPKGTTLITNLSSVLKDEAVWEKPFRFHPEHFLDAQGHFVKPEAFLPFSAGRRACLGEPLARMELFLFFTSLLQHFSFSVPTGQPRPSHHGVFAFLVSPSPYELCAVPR
Procedure: as §1, §2

CYP3A4 activity, % of the control activity [2] | SMILES | neurotoxicity, cell viability (in words) [1] | anti-inflammatory activity in Griess assay (in words) [3] | effect on phagocytosis (in words) [4] | effect on CYP2D6 activity (in words) [5]
~ 20% | C#CCn1c(=O)c2c(nc(NCc3ccccc3Cl)n2C)n(C)c1=O [compound 19, 8-((2-Chlorobenzyl)amino)-3,7-dimethyl-1-(prop-2-yn-1-yl)-3,7-dihydro-1H-purine-2,6-dione] | high safety profile | moderate anti-inflammatory activity |  | 
around 75% | C#CCn1c(=O)c2c(nc(NCc3c(F)cccc3Cl)n2C)n(C)c1=O [compound 22, 8-((2-Chloro-6-fluorobenzyl)amino)-3,7-dimethyl-1-(prop-2-yn-1-yl)-3,7-dihydro-1H-purine-2,6-dione] | high safety profile | moderate anti-inflammatory activity | protects microglia from LPS-induced inflammation and, therefore, also from phagocytosis; also recorded: protected from phagocytosis | 
~ 20% | C#CCn1c(=O)c2c(nc(NCc3cccc(Br)c3)n2C)n(C)c1=O [compound 24, 8-((3-Bromobenzyl)amino)-3,7-dimethyl-1-(prop-2-yn-1-yl)-3,7-dihydro-1H-purine-2,6-dione] | high safety profile |  |  | slight, statistically significant inhibition
